Data reported in ChEMBL document CHEMBL2074434, “Interaction of cytochrome P450 3A inhibitors with P-glycoprotein” (J Pharmacol Exp Ther, 2002).

How the values were obtained:
[1] = target: T1, ATP-dependent translocase ABCB1 (Mus musculus, UniProt P21447); experiment: TP_TRANSPORTER: increase in Calcein-AM intracellular accumulation in mdr1a-expressing LLC-PK1 cells; assay type: functional, cell-based
[2] = target: ATP-dependent translocase ABCB1 (Mus musculus, UniProt P06795); experiment: TP_TRANSPORTER: increase in Calcein-AM intracellular accumulation in mdr1b-expressing LLC-PK1 cells; assay type: functional, cell-based
Sequence of ATP-dependent translocase ABCB1 (Mus musculus, UniProt P06795) (P06795 whole entry): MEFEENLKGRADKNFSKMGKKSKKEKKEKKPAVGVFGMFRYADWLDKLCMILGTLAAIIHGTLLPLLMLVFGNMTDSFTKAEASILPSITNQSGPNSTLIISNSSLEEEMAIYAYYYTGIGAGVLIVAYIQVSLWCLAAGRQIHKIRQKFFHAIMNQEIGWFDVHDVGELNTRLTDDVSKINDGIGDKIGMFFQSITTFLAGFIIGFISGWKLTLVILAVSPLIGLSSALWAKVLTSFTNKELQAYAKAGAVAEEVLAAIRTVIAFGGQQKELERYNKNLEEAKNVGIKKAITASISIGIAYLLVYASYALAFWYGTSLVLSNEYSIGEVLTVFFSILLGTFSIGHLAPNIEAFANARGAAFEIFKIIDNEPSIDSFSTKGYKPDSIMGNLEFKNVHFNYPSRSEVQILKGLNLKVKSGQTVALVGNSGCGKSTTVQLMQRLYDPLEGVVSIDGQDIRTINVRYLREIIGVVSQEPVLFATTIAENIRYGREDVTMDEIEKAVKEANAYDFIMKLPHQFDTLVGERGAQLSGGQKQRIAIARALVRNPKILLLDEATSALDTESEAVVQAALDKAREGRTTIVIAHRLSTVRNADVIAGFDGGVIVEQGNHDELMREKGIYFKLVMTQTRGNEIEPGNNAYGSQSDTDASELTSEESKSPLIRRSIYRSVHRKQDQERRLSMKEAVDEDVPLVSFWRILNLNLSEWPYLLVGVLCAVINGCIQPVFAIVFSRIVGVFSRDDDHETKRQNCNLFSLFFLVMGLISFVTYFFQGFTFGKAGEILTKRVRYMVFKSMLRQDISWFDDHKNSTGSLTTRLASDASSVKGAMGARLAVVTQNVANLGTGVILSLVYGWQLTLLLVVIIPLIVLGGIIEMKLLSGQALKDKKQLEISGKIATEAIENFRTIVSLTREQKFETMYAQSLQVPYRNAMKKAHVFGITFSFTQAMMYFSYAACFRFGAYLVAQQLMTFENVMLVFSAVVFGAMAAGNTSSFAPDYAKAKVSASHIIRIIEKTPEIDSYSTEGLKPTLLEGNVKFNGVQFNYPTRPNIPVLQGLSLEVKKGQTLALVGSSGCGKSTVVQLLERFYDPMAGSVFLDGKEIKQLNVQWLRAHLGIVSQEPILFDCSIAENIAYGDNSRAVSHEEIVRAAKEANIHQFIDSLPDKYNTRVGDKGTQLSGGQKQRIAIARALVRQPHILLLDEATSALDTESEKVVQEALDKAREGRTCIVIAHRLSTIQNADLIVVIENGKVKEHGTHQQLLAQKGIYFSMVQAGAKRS

[3] = target: ATP-dependent translocase ABCB1 (Homo sapiens, UniProt P08183); experiment: TP_TRANSPORTER: transepithelial transport (basal to apical) in MDR1-expressing LLC-PK1 cells; assay type: functional, cell-based; conditions: pig
Sequence of ATP-dependent translocase ABCB1 (Homo sapiens, UniProt P08183) (P08183 whole entry): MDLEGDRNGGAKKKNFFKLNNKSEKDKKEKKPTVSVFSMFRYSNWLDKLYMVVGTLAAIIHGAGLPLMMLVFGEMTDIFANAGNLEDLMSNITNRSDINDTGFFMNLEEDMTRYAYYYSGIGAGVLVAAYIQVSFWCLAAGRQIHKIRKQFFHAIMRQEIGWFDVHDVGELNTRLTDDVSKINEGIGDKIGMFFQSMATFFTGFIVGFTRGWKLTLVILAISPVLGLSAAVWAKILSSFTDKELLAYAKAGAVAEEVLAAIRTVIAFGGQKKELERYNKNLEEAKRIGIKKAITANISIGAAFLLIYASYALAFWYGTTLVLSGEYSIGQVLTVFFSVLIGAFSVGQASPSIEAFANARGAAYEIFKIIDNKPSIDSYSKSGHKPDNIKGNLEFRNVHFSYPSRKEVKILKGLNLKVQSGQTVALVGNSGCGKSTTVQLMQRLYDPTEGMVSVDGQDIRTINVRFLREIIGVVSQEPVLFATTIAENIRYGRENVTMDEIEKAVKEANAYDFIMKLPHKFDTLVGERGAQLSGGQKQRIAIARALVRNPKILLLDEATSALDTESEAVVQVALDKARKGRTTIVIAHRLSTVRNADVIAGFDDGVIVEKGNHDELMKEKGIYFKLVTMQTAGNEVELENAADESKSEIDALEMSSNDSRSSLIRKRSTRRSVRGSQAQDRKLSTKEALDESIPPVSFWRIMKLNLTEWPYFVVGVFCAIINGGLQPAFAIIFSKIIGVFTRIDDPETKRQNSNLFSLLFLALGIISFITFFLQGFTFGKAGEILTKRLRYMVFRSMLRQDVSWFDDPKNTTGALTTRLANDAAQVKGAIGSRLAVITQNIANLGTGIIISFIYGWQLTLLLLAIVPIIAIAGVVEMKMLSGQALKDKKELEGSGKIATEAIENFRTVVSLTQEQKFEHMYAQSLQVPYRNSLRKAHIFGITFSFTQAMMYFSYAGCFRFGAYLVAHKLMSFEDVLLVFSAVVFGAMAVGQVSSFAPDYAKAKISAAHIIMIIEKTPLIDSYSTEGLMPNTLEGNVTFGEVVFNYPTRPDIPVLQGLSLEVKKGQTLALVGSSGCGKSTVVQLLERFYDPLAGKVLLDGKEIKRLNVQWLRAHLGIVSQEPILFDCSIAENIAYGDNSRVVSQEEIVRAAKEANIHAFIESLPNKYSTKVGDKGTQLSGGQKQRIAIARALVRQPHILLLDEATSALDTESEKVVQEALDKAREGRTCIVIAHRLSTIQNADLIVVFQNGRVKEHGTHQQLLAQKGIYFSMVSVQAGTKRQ

[4] = target: T1, ATP-dependent translocase ABCB1; experiment: TP_TRANSPORTER: increase in kidney concentration in mdr1a(-/-) mouse; assay type: functional, organism-based; conditions: in vivo
[5] = target: T1, ATP-dependent translocase ABCB1; experiment: TP_TRANSPORTER: transepithelial transport (basal to apical) in mdr1a-expressing LLC-PK1 cell; assay type: functional, cell-based; conditions: pig
[6] = target: T1, ATP-dependent translocase ABCB1; experiment: TP_TRANSPORTER: no influence on tissue distribution in mdr1a(-/-) mouse; assay type: functional, organism-based; conditions: in vivo
[7] = target: T1, ATP-dependent translocase ABCB1; experiment: TP_TRANSPORTER: increase in lung concentration in mdr1a(-/-) mouse; assay type: functional, organism-based; conditions: in vivo
[8] = target: T1, ATP-dependent translocase ABCB1; experiment: TP_TRANSPORTER: increase in liver concentration in mdr1a(-/-) mouse; assay type: functional, organism-based; conditions: in vivo
[9] = target: T1, ATP-dependent translocase ABCB1; experiment: TP_TRANSPORTER: increase in spleen concentration in mdr1a(-/-) mouse; assay type: functional, organism-based; conditions: in vivo
[10] = target: T1, ATP-dependent translocase ABCB1; experiment: TP_TRANSPORTER: increase in heart concentration in mdr1a(-/-) mouse; assay type: functional, organism-based; conditions: in vivo

T1 sequence (P21447 whole entry): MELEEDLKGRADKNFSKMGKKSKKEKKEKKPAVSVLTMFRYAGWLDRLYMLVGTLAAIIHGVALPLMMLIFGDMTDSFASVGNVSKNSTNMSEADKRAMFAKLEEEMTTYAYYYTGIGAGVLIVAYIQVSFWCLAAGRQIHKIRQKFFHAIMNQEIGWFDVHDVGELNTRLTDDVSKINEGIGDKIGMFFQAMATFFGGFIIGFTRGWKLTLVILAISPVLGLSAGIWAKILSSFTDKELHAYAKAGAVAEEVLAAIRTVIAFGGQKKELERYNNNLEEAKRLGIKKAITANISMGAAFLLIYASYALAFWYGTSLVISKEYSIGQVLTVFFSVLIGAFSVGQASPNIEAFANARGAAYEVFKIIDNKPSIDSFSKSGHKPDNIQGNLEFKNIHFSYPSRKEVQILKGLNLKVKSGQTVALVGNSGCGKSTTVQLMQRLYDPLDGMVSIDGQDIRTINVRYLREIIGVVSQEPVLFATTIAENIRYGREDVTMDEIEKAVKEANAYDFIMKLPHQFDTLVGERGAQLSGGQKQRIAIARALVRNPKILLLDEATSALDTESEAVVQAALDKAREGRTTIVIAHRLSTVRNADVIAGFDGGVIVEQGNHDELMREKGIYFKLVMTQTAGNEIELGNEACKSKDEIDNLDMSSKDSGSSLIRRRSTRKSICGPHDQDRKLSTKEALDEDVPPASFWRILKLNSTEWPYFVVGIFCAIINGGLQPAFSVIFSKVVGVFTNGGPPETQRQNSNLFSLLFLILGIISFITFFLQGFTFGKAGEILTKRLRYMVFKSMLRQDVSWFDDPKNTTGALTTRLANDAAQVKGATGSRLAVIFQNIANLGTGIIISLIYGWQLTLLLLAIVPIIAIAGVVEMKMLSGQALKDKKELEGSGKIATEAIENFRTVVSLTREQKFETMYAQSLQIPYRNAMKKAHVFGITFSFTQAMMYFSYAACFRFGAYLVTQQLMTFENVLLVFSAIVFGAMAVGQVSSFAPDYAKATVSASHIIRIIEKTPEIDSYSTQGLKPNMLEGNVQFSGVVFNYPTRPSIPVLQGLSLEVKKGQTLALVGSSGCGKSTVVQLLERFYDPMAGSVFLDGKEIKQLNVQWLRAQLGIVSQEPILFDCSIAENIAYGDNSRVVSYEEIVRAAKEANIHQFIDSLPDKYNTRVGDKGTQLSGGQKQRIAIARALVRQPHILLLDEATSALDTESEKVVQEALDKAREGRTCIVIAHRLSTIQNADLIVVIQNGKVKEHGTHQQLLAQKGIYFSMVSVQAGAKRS

Structure (SMILES)	Ki [1] [µM]	Ki [2] [µM]	further results
CC(C)C[C@H]1C(=O)N2CCC[C@H]2[C@]2(O)O[C@](NC(=O)[C@@H]3C=C4c5cccc6[nH]c(Br)c(c56)C[C@H]4N(C)C3)(C(C)C)C(=O)N12 [BROMOCRIPTINE]	7.48	6.39	–
Clc1ccccc1C(c1ccccc1)(c1ccccc1)n1ccnc1 [CLOTRIMAZOLE]	18.3	25.1	–
CC(C)[C@@]1(NC(=O)[C@@H]2C[C@@H]3c4cccc5[nH]cc(c45)C[C@H]3N(C)C2)O[C@@]2(O)[C@@H]3CCCN3C(=O)[C@H](Cc3ccccc3)N2C1=O [DIHYDROERGOCRISTINE]	111	167	Activity [3]: substrate [+]
CC(C)C[C@H]1C(=O)N2CCC[C@H]2[C@]2(O)O[C@](NC(=O)[C@@H]3C[C@@H]4c5cccc6[nH]cc(c56)C[C@H]4N(C)C3)(C(C)C)C(=O)N12 [DIHYDROERGOCRYPTINE]	333	160	Activity [4]: substrate [+]; Activity [5]: substrate [+]
CN1C[C@H](C(=O)N[C@]2(C)O[C@@]3(O)[C@@H]4CCCN4C(=O)[C@H](Cc4ccccc4)N3C2=O)C[C@@H]2c3cccc4[nH]cc(c34)C[C@H]21 [DIHYDROERGOTAMINE]	> 1000	> 1000	–
CC(C)[C@H]1C(=O)N2CCC[C@H]2[C@]2(O)O[C@](NC(=O)[C@@H]3C=C4c5cccc6[nH]cc(c56)C[C@H]4N(C)C3)(C(C)C)C(=O)N12 [ERGOCORNINE]	272	19.1	–
CC(C)[C@@]1(NC(=O)[C@@H]2C=C3c4cccc5[nH]cc(c45)C[C@H]3N(C)C2)O[C@@]2(O)[C@@H]3CCCN3C(=O)[C@H](Cc3ccccc3)N2C1=O [ERGOCRISTINE]	39.4	15.3	–
CC(C)C[C@H]1C(=O)N2CCC[C@H]2[C@]2(O)O[C@](NC(=O)[C@@H]3C=C4c5cccc6[nH]cc(c56)C[C@H]4N(C)C3)(C(C)C)C(=O)N12 [ERGOCRYPTINE]	43.5	26.9	–
C[C@@H](CO)NC(=O)[C@@H]1C=C2c3cccc4[nH]cc(c34)C[C@H]2N(C)C1 [ERGONOVINE]	118	> 1000	–
CN1C[C@H](C(=O)N[C@]2(C)O[C@@]3(O)[C@@H]4CCCN4C(=O)[C@H](Cc4ccccc4)N3C2=O)C=C2c3cccc4[nH]cc(c34)C[C@H]21 [ERGOTAMINE]	189	18	–
CC[C@H]1OC(=O)[C@H](C)[C@@H](O[C@H]2C[C@@](C)(OC)[C@@H](O)[C@H](C)O2)[C@H](C)[C@@H](O[C@@H]2O[C@H](C)C[C@H](N(C)C)[C@H]2O)[C@](C)(O)C[C@@H](C)C(=O)[C@H](C)[C@@H](O)[C@]1(C)O [ERYTHROMYCIN]	> 1000	–	–
OC(Cn1cncn1)(Cn1cncn1)c1ccc(F)cc1F [FLUCONAZOLE]	> 1000	> 1000	Activity [6]: is not a substrate [-]; Activity [5]: substrate [+]; Activity [3]: is not a substrate [-]
Clc1ccc(COC(Cn2ccnc2)c2ccc(Cl)cc2Cl)c(Cl)c1 (stereo not given) [MICONAZOLE]	22.2	–	–
COC(=O)[C@H]1[C@H]2C[C@@H]3c4[nH]c5cc(OC)ccc5c4CCN3C[C@H]2C[C@@H](OC(=O)c2cc(OC)c(OC)c(OC)c2)[C@@H]1OC [RESERPINE]	4.03	17.9	Activity [4]: substrate [+]; Activity [7]: substrate [+]; Activity [8]: substrate [+]; Activity [5]: substrate [+]; Activity [9]: substrate [+]; Activity [10]: substrate [+]
CO[C@H]1C[C@H](O[C@H]2[C@H](C)[C@@H](O[C@@H]3O[C@H](C)C[C@H](N(C)C)[C@H]3OC(C)=O)[C@@H](C)C[C@@]3(CO3)C(=O)[C@H](C)[C@@H](OC(C)=O)[C@@H](C)[C@@H](C)OC(=O)[C@@H]2C)O[C@@H](C)[C@@H]1OC(C)=O [TROLEANDOMYCIN]	217	> 1000	–
